In ChEMBL document CHEMBL4665890, “N-Trifluoromethyl Amines and Azoles: An Underexplored Functional Group in the Medicinal Chemist's Toolbox” (J Med Chem, 2020):

Columns and labels:
[1] = Stability in neat […] DMSO/H2O 1:4 mixture assessed as compound hydrolysis at 10 mM at room temperature under air without protection from sunlight measured after 1 month by LC-MS analysis; assay type: physicochemical; conditions: 730 h, 10000 µM, time 1 months
[2] = Stability in neat DMSO at 10 mM at room temperature under air without protection from sunlight measured after 1 month by LC-MS analysis; assay type: physicochemical; conditions: 730 h, 10000 µM, time 1 months
[3] = Stability in neat […] DMSO/H2O 1:4 mixture assessed as compound hydrolysis at 10 mM at room temperature under air without protection from sunlight measured after 1 month by NMR analysis; assay type: physicochemical; conditions: 730 h, 10000 µM, time 1 months
in vitro [4] = conditions: human, Caco-2
Description: Passive permeability from apical to basolateral side in human Caco-2 cells

physchem [5] = conditions: buffer, pH 7.4
physchem [6] = conditions: buffer, pH 7.4; remark: listed apart in the source
in vitro [7] = conditions: human, liver microsomes
Description: Metabolic stability in human liver microsomes

[8] = Stability in neat […] DMSO/H2O 1:4 mixture assessed as compound hydrolysis at 10 mM at room temperature under air without protection from sunlight measured after 24 hrs by LC-MS analysis; assay type: physicochemical; conditions: read-out: Drug degradation
physchem [9] = conditions: 20 mM sodium phosphate buffer, pH 7.4
Description: Half life in 20 mM sodium phosphate buffer at pH 7.4 at 25 degC by UPLC analysis

physchem [10] = conditions: 0.1 M HCl solution, pH 1
Description: Half life in 0.1 M HCl solution at pH 1.0 at 25 degC by UPLC analysis

physchem [11] = conditions: 20 mM sodium carbonate buffer, pH 10
Description: Half life in 20 mM sodium carbonate buffer at pH 10 at 25 degC by UPLC analysis

[12] = Stability in neat […] DMSO/H2O 1:4 mixture assessed as compound hydrolysis at 10 mM at room temperature under air without protection from sunlight measured after 0.5 hrs by LC-MS analysis; assay type: physicochemical; conditions: 10000 µM
physchem [13] = assay: physchem
Description: Dissociation constant, pKa2 of compound by spectrophotometry

physchem [14] = assay: physchem; remark: listed apart in the source
Description: Dissociation constant, pKa1 of compound by spectrophotometry

[15] = Stability in absence of glutathione by LC-MS analysis; assay type: physicochemical; conditions: gsh
[16] = Stability in presence of glutathione by LC-MS analysis; assay type: physicochemical; conditions: solution with glutathione

Row | SMILES | Stabilty [2] | Papp A→B (in vitro [4]) | chromatographic logD (physchem [5]) | logD (physchem [6]) | microsomal CLint (in vitro [7]) | also measured
1 | FC(F)(F)n1cnc2ccccc21 | Stable |  |  |  |  | Stabilty [1]: Stable; Stabilty [3]: Stable
2 | COc1ccc(CC(=O)Nc2cnn(C(C)C)c2)cc1OC |  | 44 ×10⁻⁶ cm/s | 0.9 | 1.6 | < 3.3 µL/min/mg | 
3 | CN(c1ccc(C(F)(F)F)cc1)C(F)(F)F | Stable |  |  |  |  | degraded at 24 h, 10000 µM [8]: 90%
4 | CC(C)n1cc(Nc2nc(N[C@H]3CC[C@H](N(C)C)CC3)c3cccn3n2)cn1 |  | 8.4 ×10⁻⁶ cm/s | 1.1 | 1.4 | < 3 µL/min/mg | 
5 | CCCCN(c1ccc(C(=O)OCCN(C)C)cc1)C(F)(F)F |  |  | 4.9 | > 4 |  | half-life (physchem [9]): < 14.4 h; half-life (physchem [10]): < 14.4 h; half-life (physchem [11]): < 14.4 h
6 | COc1ccc(CC(=O)Nc2cnn(C(F)(F)F)c2)cc1OC |  | 56 ×10⁻⁶ cm/s | 2.2 | 2.4 | 53 µL/min/mg | half-life (physchem [9]): > 1730 h; half-life (physchem [10]): 288 h; half-life (physchem [11]): > 1730 h
7 | COc1ccc(CC(=O)Nc2cnn(C(C)(C)C)c2)cc1OC |  | 45 ×10⁻⁶ cm/s | 1.6 | 2 | < 4.1 µL/min/mg | 
8 | FC(F)(F)N1CCN(c2ccccc2)CC1 | Stable |  |  |  |  | Stabilty [12]: Unstable
9 | Cc1cc(NS(=O)(=O)c2ccc(N(C)C)cc2)no1 |  |  | 1.3 | 0.6 |  | 
10 | CC(=O)c1ccc(N2CCN(C(=O)c3cnn(C(C)C)c3)CC2)cc1 |  | 40 ×10⁻⁶ cm/s | 1.5 | 1.8 | < 4.2 µL/min/mg | 
11 | CC(=O)c1ccc(N2CCN(C(=O)c3cnn(C(F)(F)F)c3)CC2)cc1 |  | 71 ×10⁻⁶ cm/s | 2.3 | 1.9 | < 3 µL/min/mg | half-life (physchem [9]): > 1730 h; half-life (physchem [10]): 984 h; half-life (physchem [11]): 408 h
12 | FC(F)(F)N1CCc2ccccc21 | Stable |  |  |  |  | Stabilty [12]: Unstable
13 | FC(F)(F)N1CCCc2ccccc21 | Stable |  |  |  |  | Stabilty [12]: Unstable
14 | Cc1ccc(-c2cn(C)cn2)cc1NC(=O)c1ccc(OCc2ccccn2)cc1 |  | 72 ×10⁻⁶ cm/s | 2.2 | 2.7 | 4.8 µL/min/mg | pKa (physchem [13]): 3.9; pKa (physchem [14]): 5.8
15 | CCN(c1ccccc1)C(F)(F)F | Stable |  |  |  |  | Stabilty [12]: Unstable
16 | Cn1cc(Nc2nc(N[C@H]3CC[C@H](N(C)C)CC3)c3cccn3n2)cn1 |  | 2.4 ×10⁻⁶ cm/s | < 0 | 0.6 | < 3 µL/min/mg | 
17 | CC(=O)c1ccc(N2CCN(C(=O)c3cnn(C)c3)CC2)cc1 |  | 42 ×10⁻⁶ cm/s | 0.6 | 1.1 | < 3 µL/min/mg | 
18 | CCCCN(C(=O)F)c1ccc(C(=O)OCCN(C)C)cc1 |  |  |  |  |  | half-life [15]: 3.95 h; half-life [16]: 1.1 h

Row | SMILES | Stabilty [2] | Papp A→B (in vitro [4]) | chromatographic logD (physchem [5]) | logD (physchem [6]) | microsomal CLint (in vitro [7]) | also measured
19 | COc1ccc(N(C)C(F)(F)F)cc1 | Stable |  |  |  |  | Stabilty [12]: Unstable
20 | CN(c1ccc(C#N)cc1)C(F)(F)F | Stable |  |  |  |  | degraded at 24 h, 10000 µM [8]: 24%
21 | Cn1c(-c2cscn2)nc2ccccc21 |  | 72 ×10⁻⁶ cm/s | 1.5 | 2.3 | 172 µL/min/mg | pKa (physchem [14]): 4.9
22 | FC(F)(F)n1c(-c2cscn2)nc2ccccc21 |  | 58 ×10⁻⁶ cm/s | 3.3 | 3 | 39 µL/min/mg | half-life (physchem [9]): > 1730 h; half-life (physchem [10]): > 1730 h; pKa (physchem [14]): < 2; half-life (physchem [11]): > 1730 h
23 | CN(c1ccc(F)cc1)C(F)(F)F | Stable |  |  |  |  | 
24 | CN(c1ccccc1)C(F)(F)F | Stable |  |  |  |  | Stabilty [12]: Unstable
25 | CC(=O)c1ccc(N2CCN(C(=O)c3cnn(C(C)(C)C)c3)CC2)cc1 |  | 66 ×10⁻⁶ cm/s | 2.2 | 2.2 | < 4.5 µL/min/mg | 
26 | CN(C)[C@H]1CC[C@H](Nc2nc(Nc3cnn(C(F)(F)F)c3)nn3cccc23)CC1 |  | 12 ×10⁻⁶ cm/s | 2.2 | 2.2 | < 3 µL/min/mg | half-life (physchem [9]): > 1730 h; half-life (physchem [10]): > 1730 h; half-life (physchem [11]): 1700 h
27 | COc1ccc(CC(=O)Nc2cnn(C)c2)cc1OC |  | 42 ×10⁻⁶ cm/s | 0.1 | 0.9 | < 3 µL/min/mg | 
28 | CN(C)[C@H]1CC[C@H](Nc2nc(Nc3cnn(C(C)(C)C)c3)nn3cccc23)CC1 |  | 11 ×10⁻⁶ cm/s | 1.5 | 1.7 | < 3 µL/min/mg | 
29 | Cc1ccc(N(C)C(F)(F)F)cc1 | Stable |  |  |  |  | Stabilty [12]: Unstable
30 | Cc1cc(NS(=O)(=O)c2ccc(N(C)C(F)(F)F)cc2)no1 |  |  | 1.5 | 1.6 |  | half-life (physchem [9]): 9.6 h; half-life (physchem [10]): 4.8 h; half-life (physchem [11]): 7.2 h
31 | FC(F)(F)n1cccn1 | Stable |  |  |  |  | Stabilty [1]: Stable; Stabilty [3]: Stable
32 | CCCCN(C)c1ccc(C(=O)OCCN(C)C)cc1 |  |  | 3.3 | 2.8 |  | 
33 | CN(c1cccc(F)c1)C(F)(F)F | Stable |  |  |  |  | 
34 | CCOC(=O)N(Cc1ccccc1)C(F)(F)F | Stable |  |  |  |  | Stabilty [12]: Unstable
35 | CCCc1nn(C)c2c(=O)[nH]c(-c3cc(S(=O)(=O)N4CCN(C)CC4)ccc3CC)nc12 |  |  | 3.3 | 2.7 |  | 
36 | CCCc1nn(C)c2c(=O)[nH]c(-c3cc(S(=O)(=O)N4CCN(C(F)(F)F)CC4)ccc3CC)nc12 |  |  | > 5.3 | > 4 |  | half-life (physchem [9]): < 19.2 h; half-life (physchem [10]): < 31.2 h; half-life (physchem [11]): < 12 h
